According to PubChem BioAssay (NCI):
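Results reflect a 48-hour exposure of cells in 96-well plates to compound at five concentrations. TGI: concentration producing complete growth inhibition.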

Columns and labels:
Assay in all cases: inhibition of tumour cell growth, NCI panel, 48 h
NCI/ADR-RES ovarian = test system: NCI/ADR-RES ovarian
OVCAR-8 ovarian = test system: OVCAR-8 ovarian
NCI-H23 lung = test system: NCI-H23 lung
HT29 colon = test system: HT29 colon
OVCAR-4 ovarian = test system: OVCAR-4 ovarian
K-562 leukemia = test system: K-562 leukemia
CCRF-CEM leukemia = test system: CCRF-CEM leukemia
T-47D breast = test system: T-47D breast
MDA-MB-435 = test system: MDA-MB-435
NCI-H226 lung = test system: NCI-H226 lung
SF-295 CNS = test system: SF-295 CNS
MDA-N = test system: MDA-N
TK-10 renal = test system: TK-10 renal
OVCAR-5 ovarian = test system: OVCAR-5 ovarian
UO-31 renal = test system: UO-31 renal
OVCAR-3 ovarian = test system: OVCAR-3 ovarian
COLO 205 colon = test system: COLO 205 colon
SK-MEL-28 melanoma = test system: SK-MEL-28 melanoma
MDA-MB-231 breast = test system: MDA-MB-231 breast
A549 NSCLC = test system: A549 NSCLC
HCT-15 colon = test system: HCT-15 colon
HCC-2998 colon = test system: HCC-2998 colon
U251 CNS = test system: U251 CNS
UACC-257 melanoma = test system: UACC-257 melanoma
MOLT-4 leukemia = test system: MOLT-4 leukemia
MALME-3M melanoma = test system: MALME-3M melanoma
KM12 colon = test system: KM12 colon
SF-539 CNS = test system: SF-539 CNS
A498 renal = test system: A498 renal
ACHN renal = test system: ACHN renal
HOP-62 NSCLC = test system: HOP-62 NSCLC
EKVX NSCLC = test system: EKVX NSCLC
NCI-H460 lung = test system: NCI-H460 lung
SK-OV-3 ovarian = test system: SK-OV-3 ovarian
PC-3 prostate = test system: PC-3 prostate
SNB-19 CNS = test system: SNB-19 CNS
IGROV1 ovarian = test system: IGROV1 ovarian
UACC-62 melanoma = test system: UACC-62 melanoma
SW-620 colon = test system: SW-620 colon
HOP-92 NSCLC = test system: HOP-92 NSCLC
786-0 renal = test system: 786-0 renal
DU-145 prostate = test system: DU-145 prostate
LOX IMVI melanoma = test system: LOX IMVI melanoma
RPMI-8226 leukemia = test system: RPMI-8226 leukemia
M14 melanoma = test system: M14 melanoma
RXF 393 renal = test system: RXF 393 renal
HL-60(TB) leukemia = test system: HL-60(TB) leukemia
BT-549 breast = test system: BT-549 breast
HCT-116 colon = test system: HCT-116 colon
HS 578T breast = test system: HS 578T breast
SN12C renal = test system: SN12C renal
SK-MEL-5 melanoma = test system: SK-MEL-5 melanoma
MCF7 breast = test system: MCF7 breast
SF-268 CNS = test system: SF-268 CNS
SR leukemia = test system: SR leukemia
NCI-H522 lung = test system: NCI-H522 lung
SNB-75 CNS = test system: SNB-75 CNS
SK-MEL-2 melanoma = test system: SK-MEL-2 melanoma
CAKI-1 renal = test system: CAKI-1 renal

Compound O=[N+]([O-])c1cc(Cl)cnc1Br has a TGI (NCI/ADR-RES ovarian) of 6.72 µM, a TGI (OVCAR-8 ovarian) of 5.02 µM and a TGI (NCI-H23 lung) of 24.2 µM. The TGI (HT29 colon) was 8.51 µM, the TGI (OVCAR-4 ovarian) was 3.82 µM and the TGI (K-562 leukemia) was 6.08 µM. For the same compound, the TGI (CCRF-CEM leukemia) was 19.6 µM, the TGI (T-47D breast) was greater than 100 µM and the TGI (MDA-MB-435) was 5.4 µM. It also gave a TGI (NCI-H226 lung) of 6.62 µM, a TGI (SF-295 CNS) of 10.6 µM and a TGI (MDA-N) of 12.4 µM. It also gave a TGI (TK-10 renal) of 12.4 µM, a TGI (OVCAR-5 ovarian) of 9.48 µM and a TGI (UO-31 renal) of 3.59 µM. It also gave a TGI (OVCAR-3 ovarian) of 6.2 µM, a TGI (COLO 205 colon) of 3.12 µM and a TGI (SK-MEL-28 melanoma) of 10.2 µM. It also gave a TGI (MDA-MB-231 breast) of 12.2 µM, a TGI (A549 NSCLC) of 8.26 µM and a TGI (HCT-15 colon) of 7.11 µM. It also gave a TGI (HCC-2998 colon) of 3.05 µM, a TGI (U251 CNS) of 5.32 µM and a TGI (UACC-257 melanoma) of 22.6 µM. For the same compound, the TGI (MOLT-4 leukemia) was 4.52 µM, the TGI (MALME-3M melanoma) was 49.7 µM and the TGI (KM12 colon) was 19 µM. It also gave a TGI (SF-539 CNS) of 4.5 µM, a TGI (A498 renal) of 32 µM and a TGI (ACHN renal) of 4.66 µM. For the same compound, the TGI (HOP-62 NSCLC) was 35.1 µM, the TGI (EKVX NSCLC) was 15.2 µM and the TGI (NCI-H460 lung) was 15.2 µM. For the same compound, the TGI (SK-OV-3 ovarian) was 22.4 µM, the TGI (PC-3 prostate) was 20.2 µM and the TGI (SNB-19 CNS) was 26.8 µM. For the same compound, the TGI (IGROV1 ovarian) was 8.32 µM, the TGI (UACC-62 melanoma) was 4.9 µM and the TGI (SW-620 colon) was 12.7 µM. For the same compound, the TGI (HOP-92 NSCLC) was 25.4 µM, the TGI (786-0 renal) was 20.2 µM and the TGI (DU-145 prostate) was greater than 100 µM. The TGI (LOX IMVI melanoma) was 3.16 µM, the TGI (RPMI-8226 leukemia) was 6.79 µM and the TGI (M14 melanoma) was 16.3 µM. It also gave a TGI (RXF 393 renal) of 3.12 µM, a TGI (HL-60(TB) leukemia) of 9.11 µM and a TGI (BT-549 breast) of 11.3 µM. It also gave a TGI (HCT-116 colon) of 24 µM, a TGI (HS 578T breast) of 59.9 µM and a TGI (SN12C renal) of 7.82 µM. The TGI (SK-MEL-5 melanoma) was 10.1 µM, the TGI (MCF7 breast) was 2840 nM and the TGI (SF-268 CNS) was 5.81 µM.
O=[N+]([O-])c1ccc(NNN=Nc2ccc(-c3nc4ccccc4s3)cc2)c([N+](=O)[O-])c1 gave a TGI (NCI/ADR-RES ovarian) of 81.5 µM, a TGI (OVCAR-8 ovarian) of 72.5 µM and a TGI (NCI-H23 lung) of 59.3 µM. It also gave a TGI (HT29 colon) of 41.3 µM, a TGI (OVCAR-4 ovarian) greater than 100 µM and a TGI (K-562 leukemia) of 86.2 µM. The TGI (SR leukemia) was 90.1 µM, the TGI (CCRF-CEM leukemia) was greater than 100 µM and the TGI (T-47D breast) was greater than 100 µM. The TGI (MDA-MB-435) was 66.2 µM, the TGI (NCI-H226 lung) was 69.4 µM and the TGI (SF-295 CNS) was 42.6 µM. The TGI (MDA-N) was 35.3 µM, the TGI (TK-10 renal) was greater than 100 µM and the TGI (OVCAR-5 ovarian) was 71.5 µM. The TGI (UO-31 renal) was 51.3 µM, the TGI (OVCAR-3 ovarian) was 46.7 µM and the TGI (COLO 205 colon) was 31.5 µM. The TGI (SK-MEL-28 melanoma) was greater than 100 µM, the TGI (MDA-MB-231 breast) was 64.3 µM and the TGI (A549 NSCLC) was greater than 100 µM. It also gave a TGI (HCT-15 colon) of 66.4 µM, a TGI (HCC-2998 colon) of 36.6 µM and a TGI (U251 CNS) of 76.3 µM. It also gave a TGI (NCI-H522 lung) of 70.9 µM, a TGI (UACC-257 melanoma) of 36 µM and a TGI (MOLT-4 leukemia) of 53.5 µM. The TGI (SNB-75 CNS) was 82.1 µM, the TGI (MALME-3M melanoma) was 77.6 µM and the TGI (KM12 colon) was greater than 100 µM. The TGI (SF-539 CNS) was 42.4 µM, the TGI (A498 renal) was 20.5 µM and the TGI (ACHN renal) was 57.3 µM. It also gave a TGI (SK-MEL-2 melanoma) of 41.8 µM, a TGI (HOP-62 NSCLC) of 48.4 µM and a TGI (EKVX NSCLC) of 44.4 µM. It also gave a TGI (NCI-H460 lung) of 56.3 µM, a TGI (SK-OV-3 ovarian) greater than 100 µM and a TGI (PC-3 prostate) of 73.3 µM. The TGI (SNB-19 CNS) was greater than 100 µM, the TGI (IGROV1 ovarian) was 49.5 µM and the TGI (CAKI-1 renal) was greater than 100 µM. It also gave a TGI (UACC-62 melanoma) of 27.7 µM, a TGI (SW-620 colon) greater than 100 µM and a TGI (HOP-92 NSCLC) of 52.7 µM. For the same compound, the TGI (786-0 renal) was 50.6 µM, the TGI (DU-145 prostate) was greater than 100 µM and the TGI (LOX IMVI melanoma) was 32.7 µM. The TGI (M14 melanoma) was 35.2 µM, the TGI (RXF 393 renal) was 50.5 µM and the TGI (HL-60(TB) leukemia) was 69.9 µM. For the same compound, the TGI (BT-549 breast) was 58.7 µM, the TGI (HCT-116 colon) was 33.8 µM and the TGI (HS 578T breast) was greater than 100 µM. The TGI (SN12C renal) was 50.8 µM, the TGI (SK-MEL-5 melanoma) was 29.3 µM and the TGI (SF-268 CNS) was greater than 100 µM.
COC(=O)CC1c2ccccc2N2C(=O)Cc3c([nH]c4ccccc34)C12 (stereo not drawn) was tested, and the TGI (NCI/ADR-RES ovarian) was greater than 100 µM, the TGI (OVCAR-8 ovarian) was greater than 100 µM and the TGI (NCI-H23 lung) was greater than 100 µM. It also gave a TGI (HT29 colon) greater than 100 µM, a TGI (OVCAR-4 ovarian) greater than 100 µM and a TGI (K-562 leukemia) greater than 100 µM. The TGI (SR leukemia) was greater than 100 µM, the TGI (CCRF-CEM leukemia) was greater than 100 µM and the TGI (T-47D breast) was greater than 100 µM. For the same compound, the TGI (MDA-MB-435) was greater than 100 µM, the TGI (NCI-H226 lung) was greater than 100 µM and the TGI (SF-295 CNS) was greater than 100 µM. The TGI (MDA-N) was greater than 100 µM, the TGI (TK-10 renal) was greater than 100 µM and the TGI (OVCAR-5 ovarian) was greater than 100 µM. It also gave a TGI (UO-31 renal) greater than 100 µM, a TGI (OVCAR-3 ovarian) greater than 100 µM and a TGI (COLO 205 colon) greater than 100 µM. For the same compound, the TGI (SK-MEL-28 melanoma) was greater than 100 µM, the TGI (MDA-MB-231 breast) was greater than 100 µM and the TGI (A549 NSCLC) was greater than 100 µM. It also gave a TGI (HCT-15 colon) greater than 100 µM, a TGI (HCC-2998 colon) greater than 100 µM and a TGI (U251 CNS) greater than 100 µM. It also gave a TGI (NCI-H522 lung) greater than 100 µM, a TGI (UACC-257 melanoma) greater than 100 µM and a TGI (MOLT-4 leukemia) greater than 100 µM. For the same compound, the TGI (SNB-75 CNS) was greater than 100 µM, the TGI (MALME-3M melanoma) was greater than 100 µM and the TGI (KM12 colon) was greater than 100 µM. It also gave a TGI (A498 renal) greater than 100 µM, a TGI (ACHN renal) greater than 100 µM and a TGI (SK-MEL-2 melanoma) greater than 100 µM. The TGI (HOP-62 NSCLC) was greater than 100 µM, the TGI (EKVX NSCLC) was greater than 100 µM and the TGI (NCI-H460 lung) was greater than 100 µM. For the same compound, the TGI (SK-OV-3 ovarian) was greater than 100 µM, the TGI (PC-3 prostate) was greater than 100 µM and the TGI (SNB-19 CNS) was greater than 100 µM. The TGI (IGROV1 ovarian) was greater than 100 µM, the TGI (CAKI-1 renal) was greater than 100 µM and the TGI (UACC-62 melanoma) was greater than 100 µM. It also gave a TGI (SW-620 colon) greater than 100 µM, a TGI (HOP-92 NSCLC) greater than 100 µM and a TGI (786-0 renal) greater than 100 µM. For the same compound, the TGI (DU-145 prostate) was greater than 100 µM, the TGI (LOX IMVI melanoma) was greater than 100 µM and the TGI (RPMI-8226 leukemia) was greater than 100 µM. It also gave a TGI (M14 melanoma) greater than 100 µM, a TGI (RXF 393 renal) greater than 100 µM and a TGI (BT-549 breast) greater than 100 µM. The TGI (HCT-116 colon) was greater than 100 µM, the TGI (HS 578T breast) was 96.2 µM and the TGI (SN12C renal) was greater than 100 µM. The TGI (SK-MEL-5 melanoma) was greater than 100 µM, the TGI (MCF7 breast) was greater than 100000 nM and the TGI (SF-268 CNS) was greater than 100 µM.
